In the supplement of paper PMC10307832:

Key:
Experiment in all cases: relative viability (nuclei count vs DMSO), 5 days (fraction); higher = more cells survive
[1] = compound: Cc1ccc(Nc2nccc(N(C)c3ccc4c(C)n(C)nc4c3)n2)cc1S(N)(=O)=O [Pazopanib] + CS(=O)(=O)CCNCc1ccc(-c2ccc3ncnc(Nc4ccc(OCc5cccc(F)c5)c(Cl)c4)c3c2)o1 [Lapatinib] (partner 2 µM)
Summary of the method: (§1)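 Each reported value is a median over duplicate plates. It expresses relative viability: treated-well nuclei count divided by vehicle-well nuclei count. Lung cancer cell lines in 1536-well plates were dosed by pin tool a day after seeding, alone with one drug or with a fixed anchor-drug dose plus five library-drug doses (not always all listed) in √10 steps, and nuclei were counted after 5 days.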

[2] = compound: Cc1ccc(C(=O)Nc2ccc(CN3CCN(C)CC3)c(C(F)(F)F)c2)cc1C#Cc1cnc2cccnn12 [Ponatinib] + N=C(N)NC(=N)NCCc1ccccc1 [Phenformin] (partner 250 µM)
Summary of the method: as §1

[3] = compound: Cc1ccc(Nc2nccc(N(C)c3ccc4c(C)n(C)nc4c3)n2)cc1S(N)(=O)=O [Pazopanib] + O=C(CCCCCCC(=O)Nc1ccccc1)NO [Vorinostat] (partner 1 µM)
Summary of the method: as §1

[4] = compound: Cc1ccc(C(=O)Nc2ccc(CN3CCN(C)CC3)c(C(F)(F)F)c2)cc1C#Cc1cnc2cccnn12 [Ponatinib] + O=C(CCCCCCC(=O)Nc1ccccc1)NO [Vorinostat] (partner 1 µM)
Summary of the method: as §1

| Cell Line | relative viability ([1]; first compound 0.01 µM) | relative viability ([1]; first compound 0.03162 µM) | relative viability ([1]; first compound 0.1 µM) | relative viability ([1]; first compound 0.3162 µM) | relative viability ([1]; first compound 1 µM) | relative viability ([2]; first compound 0.002 µM) | relative viability ([2]; first compound 0.006325 µM) | relative viability ([2]; first compound 0.06325 µM) | relative viability ([2]; first compound 0.2 µM) | relative viability ([3]; first compound 0.01 µM) | relative viability ([3]; first compound 0.03162 µM) | relative viability ([3]; first compound 0.1 µM) | relative viability ([3]; first compound 0.3162 µM) | relative viability ([3]; first compound 1 µM) | relative viability ([4]; first compound 0.002 µM) | relative viability ([4]; first compound 0.006325 µM) | relative viability ([4]; first compound 0.06325 µM) | relative viability ([4]; first compound 0.2 µM) |
| --- | --- | --- | --- | --- | --- | --- | --- | --- | --- | --- | --- | --- | --- | --- | --- | --- | --- | --- |
| NCI-H838 | 0.961 | 1.09 | 0.97 | 1.02 | 1.13 | 0.567 | 0.715 | 0.527 | 0.442 | 0.72 | 0.734 | 0.816 | 0.706 | 0.794 | 0.755 | 0.764 | 0.773 | 0.664 |
| H3255 | 0.203 | 0.26 | 0.248 | 0.285 | 0.256 | 0.366 | 0.366 | 0.393 | 0.329 | 0.709 | 0.841 | 0.701 | 0.901 | 0.793 | 0.613 | 0.85 | 0.75 | 0.782 |
| NCI-H1395 | 0.788 | 1.27 | 0.981 | 1.05 | 1.1 | 0.417 | 0.432 | 0.386 | 0.377 | 0.586 | 0.768 | 0.673 | 0.734 | 1.07 | 0.483 | 0.578 | 0.678 | 0.416 |
| NCI-H1437 | 0.919 | 0.877 | 0.823 | 0.815 | 0.785 | 0.293 | 0.334 | 0.322 | 0.302 | 0.833 | 0.778 | 0.82 | 0.762 | 0.75 | 0.859 | 0.858 | 0.938 | 0.901 |
| LU99A | 0.727 | 0.978 | 0.992 | 1.12 | 1.07 | 0.823 | 0.873 | 0.744 | 0.859 | – | 0.493 | 0.459 | 0.545 | 0.554 | 0.439 | 0.519 | 0.535 | 0.611 |
| HCC-827 | 0.169 | 0.177 | 0.122 | 0.181 | 0.191 | 0.411 | 0.429 | 0.416 | 0.348 | 0.895 | 0.839 | 0.843 | 0.922 | 0.785 | 0.736 | 0.78 | 0.821 | 0.801 |
| LK-2 | 0.764 | 0.804 | 0.959 | 1 | 0.952 | – | 0.52 | 0.239 | 0.21 | 0.201 | 0.26 | 0.252 | 0.236 | 0.235 | 0.261 | 0.284 | 0.341 | 0.345 |
| HCC-366 | 1.09 | 1.03 | 1.09 | 1.15 | 1.03 | 0.602 | 0.587 | 0.622 | 0.515 | 0.239 | 0.336 | 0.414 | 0.379 | 0.81 | 0.329 | 0.318 | 0.416 | 0.317 |
| BEN | – | 0.574 | 0.721 | 0.808 | 0.774 | 0.253 | 0.288 | 0.253 | 0.264 | 0.593 | 0.606 | 0.533 | 0.591 | 0.563 | 0.562 | 0.631 | 0.666 | 0.546 |
| NCI-H23 | 0.887 | 1.3 | 1.41 | 1.09 | 1.14 | 0.759 | 0.756 | 0.815 | 0.593 | 0.431 | 0.641 | 0.628 | 0.661 | 0.782 | 0.504 | 0.588 | 0.607 | 0.634 |
| NCI-H1793 | – | 0.705 | 0.525 | 0.755 | 0.852 | 0.33 | 0.324 | 0.397 | 0.326 | – | 0.753 | 0.637 | 0.811 | 1.11 | 0.678 | 0.701 | 0.846 | 0.686 |
| 201T | 0.971 | 0.998 | 1.04 | 1.04 | 1.06 | 0.417 | 0.458 | 0.438 | 0.42 | 0.892 | 0.949 | 0.937 | 1.02 | 0.843 | 0.965 | 0.992 | 1.05 | 0.939 |
| NCI-H358 | 0.482 | 0.53 | 0.356 | 0.442 | 0.489 | 0.375 | 0.46 | 0.4 | 0.299 | 0.752 | 0.656 | 0.782 | 0.728 | 0.694 | 0.644 | 0.634 | 0.669 | 0.551 |
| NCI-H520 | – | 0.96 | 0.766 | 0.859 | 0.921 | 0.392 | 0.552 | 0.291 | 0.18 | 0.678 | 0.717 | 0.742 | 0.581 | 0.549 | 0.686 | 0.59 | 0.663 | 0.499 |
| NCI-H727 | 0.79 | 0.988 | 0.801 | 0.878 | 0.891 | 0.537 | 0.507 | 0.605 | 0.532 | 1.17 | – | 1.06 | 1.15 | 1.08 | 1.08 | 1.09 | 1.21 | 1.09 |
| HCC-15 | 0.841 | 0.789 | 0.907 | 0.89 | 1 | 0.445 | 0.494 | 0.547 | 0.467 | 0.878 | 0.906 | 0.867 | 0.893 | 0.791 | 0.826 | 0.829 | 0.949 | 0.809 |
| ABC-1 | – | 1.32 | 1.37 | 0.91 | 1.27 | 0.215 | 0.23 | 0.224 | 0.263 | 1.04 | 1.38 | 0.731 | 1.2 | 1.27 | 0.786 | 1.06 | 0.988 | 0.994 |
| NCI-H460 | 1.05 | 1.06 | 1.04 | 0.946 | 1.15 | 0.489 | 0.501 | 0.549 | 0.573 | 0.719 | 0.765 | 0.749 | 0.677 | 0.723 | 0.665 | 0.657 | 0.74 | 0.664 |
